Test results from EP4186364A1, “ANTIMICROBIAL TREATMENT OF SUBSTRATES” (Livinguard AG, priority 2021, dated 2023).
In brackets after ≈: the same amount, converted by molar mass. Like-named read-outs stand apart in the source and are kept apart here.

Tests used:
[1] = at 20 °C; Flask method; cited from earlier work
[2] = at 20 °C; Column elution; cited from earlier work
[3] = test system: Escherichia coli (E.coli); assay: Antimicrobial activity of a METAC solution (optical density OD600); format: cell-based

Structure (SMILES)	water solubility [1] [µg/mL]	water solubility [2] [µg/mL]	METAC required to stop E.coli growth ([3]; METAC in solution, OD600, Fig. 8b) [mg/mL]	antimicrobial activity ([3]; METAC monomer as such, not bound to a substrate)
Cc1cc(C)c(C(=O)P(=O)(c2ccccc2)c2ccccc2)c(C)c1 [TPO, diphenyl(2,4,6-trimethylbenzoyl)phosphine oxide]	3.3 (≈ 9.47 µM)	11.9 (≈ 34.2 µM)	–	–
C=C(C)C(=O)OCC[N+](C)(C)C.[Cl-] [METAC, [2-(methacryloyloxy)ethyl]trimethylammonium chloride]	–	–	40	low antimicrobial activity
